ChEMBL document CHEMBL1201862, “PubChem BioAssay data set” (2004)
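Interpolation was linear, between the two tested concentrations surrounding the appropriate level; five concentrations were tested over 48 hours in 96-well plates. Abbreviation: GI50, concentration required for 50% inhibition of growth.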 Active and inactive are the calls of the source. Cut-off read from the data, not from the text of the source: active = GI50 up to about 1.1 µM and inactive = higher.

Experiments:
Test in all cases: NCI tumour cell line growth inhibition, 48 h
SNB-19 = tested on: SNB-19
NCI-H522 = tested on: NCI-H522
SK-MEL-5 = tested on: SK-MEL-5
HOP-62 = tested on: HOP-62
A549 = tested on: A549
SR = tested on: SR
HCT-15 = tested on: HCT-15
K562 = tested on: K562
T47D = tested on: T47D
HT-29 = tested on: HT-29
CAKI-1 = tested on: CAKI-1
SK-MEL-2 = tested on: SK-MEL-2
SF-295 = tested on: SF-295
MDA-MB-231 = tested on: MDA-MB-231
MOLT-4 = tested on: MOLT-4
U-251 = tested on: U-251
EKVX = tested on: EKVX
OVCAR-5 = tested on: OVCAR-5
COLO 205 = tested on: COLO 205
NCI/ADR-RES = tested on: NCI/ADR-RES

| Compound | GI50 (SNB-19) | GI50 (NCI-H522) | GI50 (SK-MEL-5) | GI50 (HOP-62) | GI50 (A549) | GI50 (SR) | GI50 (HCT-15) [µM] | GI50 (K562) | GI50 (T47D) | GI50 (HT-29) | GI50 (CAKI-1) | GI50 (SK-MEL-2) | GI50 (SF-295) | GI50 (MDA-MB-231) | GI50 (MOLT-4) | GI50 (U-251) | GI50 (EKVX) | GI50 (OVCAR-5) | GI50 (COLO 205) | GI50 (NCI/ADR-RES) |
| --- | --- | --- | --- | --- | --- | --- | --- | --- | --- | --- | --- | --- | --- | --- | --- | --- | --- | --- | --- | --- |
| Cc1ccc(/C=C2\Cc3cc(C)c(C)cc3C2=O)c(C(=O)O)c1 | 30.9 µM (inactive) | 22.1 µM (inactive) | 29.1 µM (inactive) | 33.7 µM (inactive) | 30.8 µM (inactive) | 52.2 µM (inactive) | 27.5 | 44.1 µM (inactive) | 43.3 µM (inactive) | 33.3 µM (inactive) | 45.8 µM (inactive) | 45.6 µM (inactive) | 33.5 µM (inactive) | 28.2 µM (inactive) | 34.3 µM (inactive) | 26.1 µM (inactive) | 87.7 µM (inactive) | – | – | – |
| O=C1[C@H](Cl)[C@H]2c3cc4ccccc4nc3Oc3ccccc3N12 | 46.8 µM (inactive) | 24.3 µM (inactive) | 30.9 µM (inactive) | 35.4 µM (inactive) | 33.5 µM (inactive) | 20.9 µM (inactive) | 43 | > 10 µM (inactive) | – | 69.8 µM (inactive) | 38.7 µM (inactive) | 36.5 µM (inactive) | 21.8 µM (inactive) | – | 27.7 µM (inactive) | 30.9 µM (inactive) | 81.8 µM (inactive) | 67.3 µM (inactive) | 54.8 µM (inactive) | – |
| Cc1cccc(C)c1NC(=O)CCCC(=O)C(C#N)c1ccccc1 (stereo not drawn) | > 10 µM (inactive) | > 100 µM (inactive) | > 100 µM (inactive) | > 10 µM (inactive) | > 10 µM (inactive) | > 100 µM (inactive) | > 10 | > 100 µM (inactive) | – | > 10 µM (inactive) | > 100 µM (inactive) | > 100 µM (inactive) | > 10 µM (inactive) | – | > 100 µM (inactive) | > 10 µM (inactive) | > 10 µM (inactive) | > 10 µM (inactive) | > 100 µM (inactive) | – |
| CC1=C(O)C(=O)C2C(=O)C1C1Cc3ccccc3C21 (stereo not drawn) | > 100 µM (inactive) | > 100 µM (inactive) | > 100 µM (inactive) | > 100 µM (inactive) | > 100 µM (inactive) | > 100 µM (inactive) | > 100 | > 100 µM (inactive) | – | > 100 µM (inactive) | > 100 µM (inactive) | > 100 µM (inactive) | > 100 µM (inactive) | – | > 100 µM (inactive) | > 100 µM (inactive) | > 100 µM (inactive) | > 100 µM (inactive) | > 100 µM (inactive) | – |
| O=[N+]([O-])[C@@H]1C2C=CC(C2)[C@H]1Cl (stereo partly drawn) | > 100 µM (inactive) | > 100 µM (inactive) | > 100 µM (inactive) | > 100 µM (inactive) | > 100 µM (inactive) | > 100 µM (inactive) | > 100 | > 100 µM (inactive) | – | > 100 µM (inactive) | > 100 µM (inactive) | > 100 µM (inactive) | > 100 µM (inactive) | – | > 100 µM (inactive) | > 100 µM (inactive) | > 100 µM (inactive) | > 100 µM (inactive) | > 100 µM (inactive) | – |
| COC(=O)C1Cc2c([nH]c3ccccc23)-c2[nH]c3ccccc3c2CC(NC(C)=O)C(=O)NCC(=O)NCC(=O)N1 (stereo not drawn) | > 100 µM (inactive) | > 100 µM (inactive) | > 100 µM (inactive) | > 100 µM (inactive) | > 100 µM (inactive) | – | > 100 | > 100 µM (inactive) | > 100 µM (inactive) | > 100 µM (inactive) | > 100 µM (inactive) | > 100 µM (inactive) | > 100 µM (inactive) | > 100 µM (inactive) | > 100 µM (inactive) | > 100 µM (inactive) | > 100 µM (inactive) | > 100 µM (inactive) | > 100 µM (inactive) | > 100 µM (inactive) |
| Oc1c(Cl)c(Cl)c(O)c2c1CCCC2 | 16 µM (inactive) | 1.97 µM (inactive) | 13 µM (inactive) | 25.4 µM (inactive) | 21 µM (inactive) | – | 12.9 | – | – | 19.1 µM (inactive) | – | 19.7 µM (inactive) | 18.5 µM (inactive) | 15.4 µM (inactive) | – | 17.5 µM (inactive) | 7.85 µM (inactive) | – | 1.83 µM (inactive) | 15.5 µM (inactive) |
| CC(=O)[C@@]1(C)CC2(CCN(C)CC2)OC1C (stereo partly drawn) | > 100 µM (inactive) | > 100 µM (inactive) | > 100 µM (inactive) | > 100 µM (inactive) | > 100 µM (inactive) | – | > 100 | > 100 µM (inactive) | > 100 µM (inactive) | > 100 µM (inactive) | > 100 µM (inactive) | – | > 100 µM (inactive) | > 100 µM (inactive) | > 100 µM (inactive) | > 100 µM (inactive) | > 100 µM (inactive) | > 100 µM (inactive) | > 100 µM (inactive) | > 100 µM (inactive) |
| O=C1CC(c2ccccc2)NCN1 (stereo not drawn) | > 100 µM (inactive) | > 100 µM (inactive) | > 100 µM (inactive) | > 100 µM (inactive) | > 100 µM (inactive) | > 100 µM (inactive) | > 100 | > 100 µM (inactive) | – | > 100 µM (inactive) | > 100 µM (inactive) | > 100 µM (inactive) | > 100 µM (inactive) | – | > 100 µM (inactive) | > 100 µM (inactive) | > 100 µM (inactive) | > 100 µM (inactive) | > 100 µM (inactive) | – |
| CCOC(=O)/C=C1\c2ccccc2C(=O)N1CC(=O)OCC | > 100 µM (inactive) | > 100 µM (inactive) | > 100 µM (inactive) | > 100 µM (inactive) | > 100 µM (inactive) | – | > 100 | > 100 µM (inactive) | > 100 µM (inactive) | – | > 100 µM (inactive) | > 100 µM (inactive) | > 100 µM (inactive) | > 100 µM (inactive) | > 100 µM (inactive) | > 100 µM (inactive) | > 100 µM (inactive) | > 100 µM (inactive) | > 100 µM (inactive) | 50 µM (inactive) |
| Cc1oc2nc(N(C)C)nc(NN)c2c1C | > 100 µM (inactive) | > 100 µM (inactive) | > 100 µM (inactive) | > 100 µM (inactive) | > 100 µM (inactive) | – | > 100 | > 100 µM (inactive) | > 100 µM (inactive) | > 100 µM (inactive) | > 100 µM (inactive) | > 100 µM (inactive) | > 100 µM (inactive) | > 100 µM (inactive) | > 100 µM (inactive) | > 100 µM (inactive) | > 100 µM (inactive) | > 100 µM (inactive) | > 100 µM (inactive) | > 100 µM (inactive) |
| CCOC(=O)c1cc(C2CCN(Cc3ccccc3)C2=O)c(C(=O)/C=C(/C)N)[nH]1 (stereo not drawn) | > 100 µM (inactive) | 57.3 µM (inactive) | > 100 µM (inactive) | 30.5 µM (inactive) | 73.6 µM (inactive) | – | > 100 | > 100 µM (inactive) | > 100 µM (inactive) | > 100 µM (inactive) | > 100 µM (inactive) | > 100 µM (inactive) | 46.3 µM (inactive) | > 100 µM (inactive) | > 100 µM (inactive) | > 100 µM (inactive) | > 100 µM (inactive) | > 100 µM (inactive) | > 100 µM (inactive) | 72.1 µM (inactive) |
| COc1cc2c(c(OC)c1OC)-c1ccc(SC)c(=O)cc1C(CC(=O)Oc1ccc(F)cc1)C2 (stereo not drawn) | 0.255 µM (active) | 0.116 µM (active) | 0.193 µM (active) | 0.341 µM (active) | 0.134 µM (active) | 0.0466 µM (active) | 0.26 | 0.15 µM (active) | – | 0.164 µM (active) | 0.0676 µM (active) | 0.23 µM (active) | 0.0359 µM (active) | – | 0.436 µM (active) | 0.159 µM (active) | 5.04 µM (inactive) | 39.1 µM (inactive) | 0.133 µM (active) | – |
| CCc1cc(CCC(=O)Nc2c(C)cccc2C)n[nH]1 | > 100 µM (inactive) | > 100 µM (inactive) | > 100 µM (inactive) | > 100 µM (inactive) | > 100 µM (inactive) | > 100 µM (inactive) | > 100 | > 100 µM (inactive) | – | > 100 µM (inactive) | > 100 µM (inactive) | > 100 µM (inactive) | > 100 µM (inactive) | – | > 100 µM (inactive) | > 100 µM (inactive) | > 100 µM (inactive) | > 100 µM (inactive) | > 100 µM (inactive) | – |
| COc1cc2c(cc1OC)[Se]c1cc(OC)c(OC)cc1[Se]2 | > 10 µM (inactive) | 8.75 µM (inactive) | > 10 µM (inactive) | > 10 µM (inactive) | > 10 µM (inactive) | 4.74 µM (inactive) | 5.3 | 6.64 µM (inactive) | – | 6.81 µM (inactive) | > 10 µM (inactive) | > 10 µM (inactive) | 18.3 µM (inactive) | – | > 100 µM (inactive) | > 10 µM (inactive) | > 10 µM (inactive) | > 10 µM (inactive) | > 10 µM (inactive) | – |
| Cc1cc(S(=O)(=O)Nc2nc3ccsc3c(=O)n2N)c(S)cc1Cl | 37.2 µM (inactive) | 44 µM (inactive) | 56.9 µM (inactive) | 39.9 µM (inactive) | > 100 µM (inactive) | – | 50.7 | 86.9 µM (inactive) | – | > 100 µM (inactive) | > 100 µM (inactive) | 76.2 µM (inactive) | 31.3 µM (inactive) | 70.1 µM (inactive) | 64.3 µM (inactive) | 57.1 µM (inactive) | > 100 µM (inactive) | 35.2 µM (inactive) | > 100 µM (inactive) | 85.3 µM (inactive) |
